Measured values reported in patent US20240208909A1, “SUBSTITUTED QUINOLINE DERIVATIVES HAVING SOS1 INHIBITION ACTIVITIES AND USES THEREOF” (Accutar Biotechnology Inc., priority 2022, published 2024).

What was measured:
[1] = molecular target: SOS1/KRAS-G12D (Homo sapiens (Human), UniProt Q07889); assay: SOS1/KRAS-G12D binding inhibition assay (AlphaScreen); conditions: GST-SOS1 and 6*His KRAS-G12D, read-out: KrasG12D/SOS1 binding IC50
Procedure: Example 22: SOS1/KRAS-G12D Binding Inhibition Assay
SOS1 binding affinity of candidate compounds was measured by monitoring the interaction of SOS1 with KRAS-G12D in the presence of the test compound. Briefly, 5 nM GST tagged SOS1 proteins (final concentration) were pre-incubated with 50 nM 6*His tagged KRAS-G12D proteins (final concentration) in an assay buffer containing 10 mM HEPES, pH 7.4, 150 mM NaCl, 1 mM DTT, 5 mM MgCl2, 0.1% Tween-20, and 0.05% BSA for 30 minutes. The test compounds in 2% DMSO (final concentration) at various concentrations were then added to the reaction mixture and incubated for another 30 minutes at 4° C. 5 ug/ml GSH AlphaScreen donor beads (PerkinElmer, 6765300) and 5 ug/ml nickel chelate (Ni-NTA) AlphaScreen acceptor beads (PerkinElmer, 6760619C) (final concentrations) were then added to the mixture. After an incubation of 2 hours at 4° C., the fluorescent signals were obtained on the EnVision® 2105 Multilabel Plate Reader (PerkinElmer).
Raw AlphaScreen data were converted to a percentage of inhibition (relative to DMSO) using the following equations: • a) For a given test compound concentration X:
Signal (X)=Signal (SOS1 & KRAS-G12D & compound)-Signal (buffer & KRAS-G12D & compound)
Percentage of inhibition at concentration X=[1−Signal (X)/Signal (DMSO)]*100% b)
The IC50 values were determined by nonlinear regression of plots of [inhibitor] vs. percentage of inhibition with variable slope, analyzed using GraphPad Prism 9.

[2] = tested on: Phospho-ERK1/2 in DLD1 cells; assay: Phospho-ERK1/2 expression inhibition in DLD1 cells; assay type: cell-based; conditions: Homo sapiens, DLD-1, 4 hours, read-out: DLD1 pERK IC50
Procedure: Example 23: Phospho-ERK1/2 Expression Inhibition in DLD1 Cells
DLD1 cells were obtained from American Type Culture Collection (ATCC). DLD1 cells were plated in 96-well plates (VWR #10062-900, or Corning #3904) in 90 uL culture medium at a density of 15,000 cells/well in the RPM11640 growth medium containing 10% FBS and 1% Penicillin Streptomycin, and then incubated at 37° C. overnight. The following day, the test compound was administered to the cells by using 1000×x compound stock solution prepared in DMSO at various concentrations. 1000× compound stock solution was first diluted in culturing medium to 10×, then 10 uL compound medium was added to each well in the cell plates. After administration of the compound, the cells were then incubated at 37° C. for 4 hours. Upon completion, the cells were washed with PBS briefly. 150 uL/well of 4% formaldehyde was added and the plates were incubated at room temperature for 20 mins. The cells were washed with PBS briefly, and permeabilized with 150 uL/well of ice cold 100% methanol for 10 mins. The cells were washed with PBS briefly and blocked with 100 uL/well LI-COR blocking buffer for 1 hr at room temperature with gentle shaking. The cells were incubated overnight at 4° C. with 50 uL primary antibody rabbit anti-Phospho-ERK1/2 (1: 500, Cell Signaling, #4370) diluted in Intercept Blocking Buffer (LI-COR, #927-60001) containing 0.1% Tween 20. The next day, the cells were washed with 200 uL PBS containing 0.1% Tween 20, 5×5 mins at room temperature with gentle shaking, and incubated with 50 uL secondary antibody, IRDye® 800CW Goat anti-Rabbit IgG (LI-COR, #926-32211), 1:1000, in LI-COR blocking buffer with 0.2% Tween 20 for 1 hr at room temperature with gentle shaking. The cells were washed with 200 uL PBS containing 0.1% Tween 20, 5×5 mins at room temperature with gentle shaking. The cells were washed with PBS for 5 mins. 100 uL fresh PBS was added to each well and the plates were imaged on a LI-COR Odyssey CLX plate reader.

[3] = tested on: K562 cells; assay: Cell growth inhibition of K562 cells (CellTiter-Glo); assay type: cell-based; conditions: Homo sapiens, 120 h, 5 days
Procedure: Example 24: Cell Growth Inhibition of K562 Cells
K562 cells were obtained from American Type Culture Collection (ATCC). For cell growth assay, K562 cells were seeded in 96-well plates at 1000 cells/well in 90 μl of RPM11640 growth medium containing 10% FBS and 1% Penicillin Streptomycin, and then incubated at 37° C. for 1 hour. The test compound was administered to the cells by using 1000× compound stock solution prepared in DMSO at various concentrations. 1000× compound stock solution was first diluted in culturing medium to 10×, then 10 uL compound medium was added to each well in the cell plates. After administration of the compound, the cells were then incubated at 37° C. for 5 days. Upon completion, the plates were equilibrated at room temperature for approximately 10 minutes. 100 ul of CellTiter-Glo® Reagent (Promega) was added to each well. The plates were then incubated at room temperature for 10 minutes and luminescence was recorded by EnSpire plate reader (PerkinElmer).

Chain of SOS1/KRAS-G12D (Q07889 564-1049 limits assumed): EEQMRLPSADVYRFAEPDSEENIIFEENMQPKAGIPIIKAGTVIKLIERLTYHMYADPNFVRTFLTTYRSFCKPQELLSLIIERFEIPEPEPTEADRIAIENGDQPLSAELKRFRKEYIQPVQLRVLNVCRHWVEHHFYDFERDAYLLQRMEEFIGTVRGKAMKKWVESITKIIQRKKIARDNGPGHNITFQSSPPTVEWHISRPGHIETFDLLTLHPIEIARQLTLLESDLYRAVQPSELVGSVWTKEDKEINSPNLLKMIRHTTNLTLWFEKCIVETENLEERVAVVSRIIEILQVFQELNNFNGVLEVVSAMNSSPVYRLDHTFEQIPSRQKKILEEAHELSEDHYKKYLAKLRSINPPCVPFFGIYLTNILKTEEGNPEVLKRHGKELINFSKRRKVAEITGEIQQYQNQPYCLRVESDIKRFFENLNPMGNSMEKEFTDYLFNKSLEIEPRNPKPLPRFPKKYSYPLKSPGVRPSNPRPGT

Row | Compound | IC50 [1] [nM] | IC50 [2] [nM] | GI50 [3] [nM]
1 | Cc1cc(N[C@H](C)c2cccc(C(F)(F)F)c2C)c2cc(N3CCNCC3)ccc2n1 [Compound 1, (R)-2-methyl-N-(1-(2-methyl-3-(trifluoromethyl)phenyl)ethyl)-6-(piperazin-1-yl)quinolin-4-amine] | 10 to 100 | > 500 | > 500
2 | Cc1c([C@@H](C)Nc2c(C#N)cnc3ccc(N4CCNCC4)cc23)cccc1C(F)(F)F [Compound 2, (R)-4-((1-(2-methyl-3-(trifluoromethyl)phenyl)ethyl)amino)-6-(piperazin-1-yl)quinoline-3-carbonitrile] | > 100 | – | > 500
3 | Cc1c([C@@H](C)Nc2c(C#N)cnc3ccc(N4CCN(C(=O)C5CCOC5)CC4)cc23)cccc1C(F)(F)F (stereo partly drawn) [Compound 3, 4-(((R)-1-(2-methyl-3-(trifluoromethyl)phenyl)ethyl)amino)-6-(4-(tetrahydrofuran-3-carbonyl)piperazin-1-yl)quinoline-3-carbonitrile] | > 100 | > 500 | > 500
4 | Cc1cc(N[C@H](C)c2cccc(C(F)(F)F)c2C)c2cc(N3CCN(C(=O)C4CCOC4)CC3)ccc2n1 (stereo partly drawn) [Compound 4, (4-(2-methyl-4-(((R)-1-(2-methyl-3-(trifluoromethyl)phenyl)ethyl)amino)quinolin-6-yl)piperazin-1-yl)(tetrahydrofuran-3-yl)methanone] | 10 to 100 | > 500 | 100 to 500
5 | Cc1c([C@@H](C)Nc2ccnc3ccc(N4CCNCC4)cc23)cccc1C(F)(F)F [Compound 5, (R)-N-(1-(2-methyl-3-(trifluoromethyl)phenyl)ethyl)-6-(piperazin-1-yl)quinolin-4-amine] | 10 to 100 | – | > 500
6 | Cc1c([C@@H](C)Nc2ccnc3ccc(N4CCN(C(=O)C5CCOC5)CC4)cc23)cccc1C(F)(F)F (stereo partly drawn) [Compound 6, (4-(4-(((R)-1-(2-methyl-3-(trifluoromethyl)phenyl)ethyl)amino)quinolin-6-yl)piperazin-1-yl)(tetrahydrofuran-3-yl)methanone] | 10 to 100 | 150 to 500 | 100 to 500
7 | CC(=O)N[C@@H]1CCN(c2ccc3ncc(C#N)c(N[C@H](C)c4cccc(C(F)F)c4F)c3c2)C1 [Compound 7, N-((R)-1-(3-cyano-4-(((R)-1-(3-(difluoromethyl)-2-fluorophenyl)ethyl)amino)quinolin-6-yl)pyrrolidin-3-yl)acetamide] | > 100 | – | > 500
8 | C[C@@H](Nc1ccnc2ccc(N3CC[C@@H](NC(=O)OC(C)(C)C)C3)cc12)c1cccc(C(F)F)c1F [Compound 8, tert-butyl ((R)-1-(4-(((R)-1-(3-(difluoromethyl)-2-fluorophenyl)ethyl)amino)quinolin-6-yl)pyrrolidin-3-yl)carbamate] | 10 to 100 | 150 to 500 | > 500
9 | C[C@@H](Nc1ccnc2ccc(N3CC[C@@H](N)C3)cc12)c1cccc(C(F)F)c1F [Compound 9, 6-((R)-3-aminopyrrolidin-1-yl)-N-((R)-1-(3-(difluoromethyl)-2-fluorophenyl)ethyl)quinolin-4-amine] | ≤ 10 | 150 to 500 | 100 to 500
10 | C[C@@H](Nc1ccnc2ccc(C3CCNCC3)cc12)c1cccc(C(F)F)c1F [Compound 10, (R)-N-(1-(3-(difluoromethyl)-2-fluorophenyl)ethyl)-6-(piperidin-4-yl)quinolin-4-amine] | 10 to 100 | > 500 | 100 to 500
11 | CC(=O)N[C@@H]1CCN(c2ccc3nccc(N[C@H](C)c4cccc(C(F)F)c4F)c3c2)C1 [Compound 11, N-((R)-1-(4-(((R)-1-(3-(difluoromethyl)-2-fluorophenyl)ethyl)amino)quinolin-6-yl)pyrrolidin-3-yl)acetamide] | 10 to 100 | 150 to 500 | ≤ 100
12 | CC(=O)N1CCN(c2ccc3nccc(N[C@H](C)c4cccc(C(F)F)c4F)c3c2)CC1 [Compound 12, (R)-1-(4-(4-((1-(3-(difluoromethyl)-2-fluorophenyl)ethyl)amino)quinolin-6-yl)piperazin-1-yl)ethan-1-one] | ≤ 10 | ≤ 150 | ≤ 100
13 | CC(=O)N1CCC(c2ccc3nccc(N[C@H](C)c4cccc(C(F)F)c4F)c3c2)CC1 [Compound 13, (R)-1-(4-(4-((1-(3-(difluoromethyl)-2-fluorophenyl)ethyl)amino)quinolin-6-yl)piperidin-1-yl)ethan-1-one] | ≤ 10 | 150 to 500 | ≤ 100
14 | Cc1c([C@@H](C)Nc2ccnc3ccc(N4CCOCC4)cc23)cccc1C(F)(F)F [Compound 37, (R)-N-(1-(2-methyl-3-(trifluoromethyl)phenyl)ethyl)-6-morpholinoquinolin-4-amine] | – | 150 to 500 | 100 to 500
15 | CC(=O)N1CCN(c2ccc3nccc(N[C@H](C)c4cccc(C(F)(F)F)c4C)c3c2)[C@H](C)C1 [Compound 67, 1-((R)-3-methyl-4-(4-(((R)-1-(2-methyl-3-(trifluoromethyl)phenyl)ethyl)amino)quinolin-6-yl)piperazin-1-yl)ethan-1-one] | – | > 500 | > 500
16 | Cc1c([C@@H](C)Nc2ccnc3ccc(N4CCNC[C@H]4C)cc23)cccc1C(F)(F)F [Compound 68, N-((R)-1-(2-methyl-3-(trifluoromethyl)phenyl)ethyl)-6-((R)-2-methylpiperazin-1-yl)quinolin-4-amine] | – | > 500 | > 500
17 | CC(=O)N1CC[C@@](F)(c2ccc3nccc(N[C@H](C)c4cccc(C(F)F)c4F)c3c2)C1 [Compound 86, 1-((R)-3-(4-(((R)-1-(3-(difluoromethyl)-2-fluorophenyl)ethyl)amino)quinolin-6-yl)-3-fluoropyrrolidin-1-yl)ethan-1-one] | > 100 | – | > 500
18 | [2H]C([2H])([2H])O[C@]1(c2ccc3nccc(N[C@H](C)c4cccc(C(F)F)c4F)c3c2)CCN(C(C)=O)C1 [Compound 93, 1-((S)-3-(4-(((R)-1-(3-(difluoromethyl)-2-fluorophenyl)ethyl)amino)quinolin-6-yl)-3-(methoxy-d3)pyrrolidin-1-yl)ethan-1-one] | – | ≤ 150 | ≤ 100
19 | [2H]C([2H])([2H])O[C@@]1(c2ccc3nccc(N[C@H](C)c4cccc(C(F)F)c4F)c3c2)CCN(C(C)=O)C1 [Compound 94, 1-((R)-3-(4-(((R)-1-(3-(difluoromethyl)-2-fluorophenyl)ethyl)amino)quinolin-6-yl)-3-(methoxy-d3)pyrrolidin-1-yl)ethan-1-one] | – | ≤ 150 | ≤ 100
